A short description of data set [1]: Plasma and brain levels in male CD-1 mice after a single IP dose. In kind it is in vivo, CD-1 mouse. Particulars: for Tissue Homogenate Conc / Plasma Conc: male CD-1 mice, IP 10 mg/kg single.
In another data set the target is TLR2. The conditions noted are these: read-out: KD for binding to TLR2; ref 1 (Li et al); cited from earlier work.
Setting [2] is: male, CD-1, mouse, brain homogenate, ip, 10 mg/kg.
Setting [3] is: male, CD-1, mouse, brain, ip, 10 mg/kg.
[4] abbreviates: male, CD-1, mouse, plasma, ip, 10 mg/kg.

Ends that are not written are not given here.

For “RKDVY [TP5, thymopentin, reference compound] [listing 1 of 2 here]”, the “Tissue Homogenate Conc” value in data set [1] (brain homogenate, 0.5 h, animal 2) worked out at 2.17 ng/mL; in data set [1] (brain homogenate, 0.5 h, animal 3), 3.18 ng/mL; in data set [1] (brain homogenate, 1 h, animal 1), 1.69 ng/mL; in data set [1] (brain homogenate, 1 h, animal 2), 1.78 ng/mL; in data set [1] (brain homogenate, 1 h, animal 3), 2.20 ng/mL; in data set [1] (brain homogenate, 2 h, animal 1), 1.64 ng/mL. For the same substance, the “Tissue Homogenate Conc” value in data set [1] (brain homogenate, 2 h, animal 2) worked out at 1.28 ng/mL; in data set [1] (brain homogenate, 2 h, animal 3), 1.22 ng/mL; in data set [1] (brain homogenate, 4 h, animal 1) it was 1.16 ng/mL; in data set [1] (brain homogenate, 4 h, animal 2), 1.03 ng/mL; in data set [1] (brain homogenate, 4 h, animal 3), 1.08 ng/mL. The level at 0.5 h in data set [1] (setting [2]) came to 2.56 ng/mL; in data set [1] (setting [4]), 132 ng/mL. For the same substance, the level at 1 h in data set [1] (setting [2]) was found to be 1.89 ng/mL; in data set [1] (setting [4]), 90.9 ng/mL. In addition, the figures for the level at 2 h in data set [1] (setting [2]) and in data set [1] (setting [4]) were 1.38 ng/mL and 59.5 ng/mL, respectively. For the same substance, the level at 4 h in data set [1] (setting [2]) is 1.09 ng/mL; in data set [1] (setting [4]), 49 ng/mL. The substance further showed a tissue level at time at 0.5 h in data set [1] (setting [3]) of 10.3 ng/g. For the same substance, the tissue level at time at 1 h in data set [1] (setting [3]) was 7.56 ng/g. Further, in data set [1] (setting [3]), the tissue level at time at 2 h is 5.52 ng/g. Besides, the tissue level at time at 4 h in data set [1] (setting [3]) was determined as 4.36 ng/g. The substance further had a level at 8 h in data set [1] (setting [4]) of 27.6 ng/mL. Moreover, the “Plasma Conc” value was found to be 144 ng/mL in data set [1] (plasma, 0.5 h, animal 1, LC-MS/MS); 136 ng/mL in data set [1] (plasma, 0.5 h, animal 2); 115 ng/mL in data set [1] (plasma, 0.5 h, animal 3); 80.1 ng/mL in data set [1] (plasma, 1 h, animal 1); 107 ng/mL in data set [1] (plasma, 1 h, animal 2); 85.7 ng/mL in data set [1] (plasma, 1 h, animal 3). Besides, the “Plasma Conc” value in data set [1] (plasma, 2 h, animal 1) turned out to be 56.5 ng/mL; in data set [1] (plasma, 2 h, animal 2), 67.2 ng/mL; in data set [1] (plasma, 2 h, animal 3), 54.8 ng/mL; in data set [1] (plasma, 4 h, animal 1), 53.4 ng/mL; in data set [1] (plasma, 4 h, animal 2), 42.2 ng/mL; in data set [1] (plasma, 4 h, animal 3), 51.3 ng/mL. The “Plasma Conc” value is 28.7 ng/mL in data set [1] (plasma, 8 h, animal 1); 30.6 ng/mL in data set [1] (plasma, 8 h, animal 2); 23.6 ng/mL in data set [1] (plasma, 8 h, animal 3).
The Kd is a measure of binding affinity in units of concentration. With “RKDVY [TP5, thymopentin, reference compound] [listing 2 of 2 here]”, at TLR2, the Kd is 1570 nM.

(Values after doi:10.1101/2023.04.18.537371v1 (bioRxiv, 2023).)
